Experiment [1] deals with SMMC-7721. As to the kind of experiment: CellTiter-Glo luminescent cell viability assay. The experiment is classed as cell-based. As to conditions: 120 h incubation, read-out: Anti-proliferative activity IC50 SMMC-7721. An excerpt: (§1) The in vitro antitumor activity of all compounds was screened against six HCC cell lines by CellTiter-Glo luminescent cell viability assay as described earlier. […] After a comprehensive assessment of PDGFR inhibition, cellular activity against HCC cells as well as potential druggability, E5 was chosen to investigate its kinase profiling, antitumor activity and molecular mechanism in the following study. […]
(§2) authenticated by using short tandem repeat (STR) matching analysis. No mycoplasma contamination was detected.
(§3) CellTiter-Glo luminescent cell viability assay
(§4) For experiments hepatocellular carcinoma cells were seeded at 4000 cells per well in 96-well plates. After overnight incubation, solution of compounds in DMSO at various concentrations were added to the cells and further incubated for 120 h. Cell viability was measured with the CellTiter-Glo Luminescent Cell Viability Assay (Promega) according to the manufacturer’s instructions. Luminescence was measured using an EnVision Multilabel Plate Reader (Perkin-Elmer). The cytotoxicity of the compounds was expressed as the percent age of luminescence relative to that of untreated cells . The concentration of compound producing 50% of cell proliferation (IC50) was calculated by nonlinear regression analysis of the response-concentration (log) curve, using the Graph-Pad Prism program package (Graph Pad Software; San Diego, CA). Results are expressed as the means of two […] experiments
For orientation: In ATP-based viability assays light output follows the ATP content of the culture.

Experiment [2] relates to MHCC97-L. As to the kind of experiment: CellTiter-Glo luminescent cell viability assay. As to conditions: 120 h incubation, read-out: Anti-proliferative activity IC50 MHCC97-L. It counts as cell-based.
Description: as §1, §2, §3, §4

The subject of experiment [3] is Hep3B. Nature of the experiment: CellTiter-Glo luminescent cell viability assay. It counts as cell-based. As to conditions: 120 h incubation, read-out: Anti-proliferative activity IC50 Hep3B.
Description: as §1, §2, §3, §4

In experiment [4] the test system is QGY-7703. As to the kind of experiment: CellTiter-Glo luminescent cell viability assay. The experiment is classed as cell-based. As to conditions: 120 h incubation, read-out: Anti-proliferative activity IC50 QGY-7703.
Description: as §1, §2, §3, §4

Experiment [5] deals with BEL7404. As to the kind of experiment: CellTiter-Glo luminescent cell viability assay. As to conditions: 120 h incubation, read-out: Anti-proliferative activity IC50 BEL7404. The experiment is classed as cell-based.
Description: as §1, §2, §3, §4

The subject of experiment [6] is SNU368. As to the kind of experiment: CellTiter-Glo luminescent cell viability assay. The experiment is classed as cell-based. As to conditions: 120 h incubation, read-out: Anti-proliferative activity IC50 SNU368.
Description: as §1, §2, §3, §4

Experiment [7] concerns the target PDGFRα (Homo sapiens, UniProt P16234). Nature of the experiment: PDGFR kinase assay, Caliper microfluidic mobility shift. The experiment is classed as biochemical. As to conditions: compound at 1 µM; averages of two separate experiments. The protocol:
(§5) In vitro inhibitory activities of all compounds at 1 μM against PDGFRα and PDGFRβ were evaluated using Caliper microfluidic mobility shift technology. […] At the same concentration, only E5 inhibited greater than 50% of PDGFRβ activity (Fig. 2B).
(§6) PDGFR kinase activity was measured using Caliper microfluidic mobility shift technology. Briefly, 2 μL compound solution (25 μM) in 25% DMSO per well were added into the 384 well microtiter plates. Then, 10 μL per well of enzyme solution (100 mM HEPES, 10 mM MgCl2, Brij35 (30%) 100 μL, 1 mM DTT, 20 ng enzyme) was added. After a brief centrifugation at 1,000 rpm, the kinase reactions were started by addition of 38 μL per well of peptide/ATP-solution (40 μM ATP, 6.5 μM peptide 5′-FAM-KKKKEEIYFFF-NH2, Tris-HCl buffer, pH 7.0) incubated at 30 °C for 60 min and stopped by the addition of 20 μL 35 mM EDTA per well. The electrophoretic separation of the phosphorylated and non-phosphorylated peptides was then carried out on LabChip EZ Reader II (Caliper Life Sciences). All other kinase reactions were carried out as previously reported using the Kinase-Glo Plus or ADP-Glo assay. Kinase inhibition rates were calculated per manufacturer’s instructions.

Experiment [8] has as its target PDGFRβ (Homo sapiens, UniProt P09619). The experiment is described as above. As to conditions: compound at 1 µM; averages of two separate experiments. The experiment is classed as biochemical. How it is done: as §5, §6

pIC50: −log10 of the molar value.

From PMC6053381, “Novel 2-phenyloxypyrimidine derivative induces apoptosis and autophagy via inhibiting PI3K pathway and activating MAPK/ERK signaling in hepatocellular carcinoma cells” (Scientific Reports, 2018) come the findings set out here.

Chain of PDGFRα (P16234 24-1089): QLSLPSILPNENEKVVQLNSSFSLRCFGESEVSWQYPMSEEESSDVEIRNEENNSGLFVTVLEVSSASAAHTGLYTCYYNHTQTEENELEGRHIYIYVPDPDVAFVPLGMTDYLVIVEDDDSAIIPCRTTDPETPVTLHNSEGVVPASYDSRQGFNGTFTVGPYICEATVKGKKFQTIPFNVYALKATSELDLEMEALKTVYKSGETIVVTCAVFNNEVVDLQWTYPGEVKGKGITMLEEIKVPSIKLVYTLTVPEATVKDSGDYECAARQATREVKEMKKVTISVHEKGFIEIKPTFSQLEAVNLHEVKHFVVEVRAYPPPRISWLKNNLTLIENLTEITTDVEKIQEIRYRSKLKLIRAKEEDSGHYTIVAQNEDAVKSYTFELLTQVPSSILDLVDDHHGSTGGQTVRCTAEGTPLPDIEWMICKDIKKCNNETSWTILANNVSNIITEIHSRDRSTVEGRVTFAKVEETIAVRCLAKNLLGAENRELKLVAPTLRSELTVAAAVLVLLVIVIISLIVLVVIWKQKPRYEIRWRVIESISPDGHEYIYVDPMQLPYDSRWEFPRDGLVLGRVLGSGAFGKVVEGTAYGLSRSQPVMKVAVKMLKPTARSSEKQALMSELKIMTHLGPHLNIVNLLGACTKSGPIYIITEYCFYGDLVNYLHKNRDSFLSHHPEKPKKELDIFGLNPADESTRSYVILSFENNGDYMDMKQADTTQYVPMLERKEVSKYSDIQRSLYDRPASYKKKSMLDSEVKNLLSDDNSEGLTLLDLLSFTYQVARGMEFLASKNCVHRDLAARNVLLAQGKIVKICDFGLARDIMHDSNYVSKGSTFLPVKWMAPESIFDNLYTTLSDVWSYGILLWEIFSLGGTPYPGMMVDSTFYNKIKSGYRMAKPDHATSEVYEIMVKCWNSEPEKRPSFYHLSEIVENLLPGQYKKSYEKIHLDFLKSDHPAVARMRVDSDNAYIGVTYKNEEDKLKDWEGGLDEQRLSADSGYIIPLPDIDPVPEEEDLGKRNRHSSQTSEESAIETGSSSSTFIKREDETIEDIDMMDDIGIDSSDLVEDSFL
Chain of PDGFRβ (P09619 33-1106): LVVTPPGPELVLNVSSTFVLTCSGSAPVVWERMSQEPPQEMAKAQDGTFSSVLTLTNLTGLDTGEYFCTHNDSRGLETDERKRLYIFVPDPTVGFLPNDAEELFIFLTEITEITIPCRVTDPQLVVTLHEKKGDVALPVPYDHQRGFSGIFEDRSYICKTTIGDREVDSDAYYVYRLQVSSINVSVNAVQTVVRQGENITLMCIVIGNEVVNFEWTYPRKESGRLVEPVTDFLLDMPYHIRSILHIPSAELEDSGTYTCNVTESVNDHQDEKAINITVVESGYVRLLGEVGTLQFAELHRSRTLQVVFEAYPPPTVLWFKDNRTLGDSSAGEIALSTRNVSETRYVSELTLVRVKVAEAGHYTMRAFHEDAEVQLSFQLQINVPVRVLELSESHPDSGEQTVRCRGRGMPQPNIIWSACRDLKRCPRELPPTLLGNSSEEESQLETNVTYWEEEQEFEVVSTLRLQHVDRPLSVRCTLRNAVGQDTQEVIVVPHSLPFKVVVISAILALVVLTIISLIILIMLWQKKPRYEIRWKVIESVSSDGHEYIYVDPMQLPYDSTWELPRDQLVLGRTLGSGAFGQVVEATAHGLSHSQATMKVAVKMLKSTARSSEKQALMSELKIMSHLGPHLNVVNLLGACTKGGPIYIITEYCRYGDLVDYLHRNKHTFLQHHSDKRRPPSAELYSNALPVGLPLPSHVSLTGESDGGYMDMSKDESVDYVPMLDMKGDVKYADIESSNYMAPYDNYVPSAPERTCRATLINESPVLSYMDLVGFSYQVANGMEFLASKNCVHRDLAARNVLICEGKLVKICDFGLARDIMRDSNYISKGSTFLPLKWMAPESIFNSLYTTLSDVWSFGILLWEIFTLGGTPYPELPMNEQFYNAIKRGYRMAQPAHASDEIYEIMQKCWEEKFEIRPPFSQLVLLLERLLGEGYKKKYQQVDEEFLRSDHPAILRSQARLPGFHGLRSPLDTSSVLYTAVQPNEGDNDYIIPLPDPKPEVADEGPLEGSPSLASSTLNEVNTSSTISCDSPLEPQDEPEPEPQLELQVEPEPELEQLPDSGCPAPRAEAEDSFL

As a reminder, the pIC50 is −log10 of the IC50, conventionally taken in molar units. `Cc1ccc(NC(=O)c2ccc(Cl)cc2)cc1Oc1nccc(-c2ccco2)n1` [D6]: the pIC50 is 5.09 in experiment [1]; 4.61 in experiment [2]; 5.14 in experiment [3]; 4.59 in experiment [4]; 4.96 in experiment [5]; 4.90 in experiment [6]. The “Inhibition effect (%) PDGFRα” value in experiment [7] is on record as 33.02%. Besides, the “Inhibition effect (%) PDGFRβ” value in experiment [8] was determined as 37.47%.

As to `CC(=O)Nc1ccc(C)c(Oc2nccc(-c3cc4ccccc4o3)n2)c1` [E1], the pIC50 in experiment [1] was 6.52; in experiment [2], 5.24; in experiment [3], 4.06; in experiment [4], 6.52; in experiment [5], 5.00; in experiment [6], 5.07. The “Inhibition effect (%) PDGFRα” value in experiment [7] was 1.56%. In experiment [8], the “Inhibition effect (%) PDGFRβ” value is 1.82%.

Consider `CCC(=O)Nc1ccc(C)c(Oc2nccc(-c3cc4ccccc4o3)n2)c1` [E2], for which the pIC50 was 6.70 in experiment [1]; 5.26 in experiment [2]; 4.13 in experiment [3]; 6.40 in experiment [4]; 5.09 in experiment [5]; 4.88 in experiment [6]. In addition, the “Inhibition effect (%) PDGFRα” value in experiment [7] came to 19.06%. For the same molecule, the “Inhibition effect (%) PDGFRβ” value in experiment [8] came out at 10.10%.

For `Cc1ccc(NC(=O)c2ccco2)cc1Oc1nccc(-c2cc3ccccc3o2)n1` [E3], the pIC50 in experiment [1] is 6.15; in experiment [2], 5.02; in experiment [3], 3.90; in experiment [4], 6.15; in experiment [5], 5.92; in experiment [6] it was 5.89. Moreover, the “Inhibition effect (%) PDGFRα” value in experiment [7] is listed as -2.00%. Further, in experiment [8], the “Inhibition effect (%) PDGFRβ” value was found to be 3.83%.

`Cc1ccc(NC(=O)CN2CCN(C)CC2)cc1Oc1nccc(-c2cc3ccccc3o2)n1` [E6]: the pIC50 was 4.56 in experiment [1]; 4.78 in experiment [2]; 4.93 in experiment [3]; 4.53 in experiment [4]; 4.42 in experiment [5]; 4.50 in experiment [6]. The “Inhibition effect (%) PDGFRα” value in experiment [7] is reported as -1.24%. In addition, in experiment [8], the “Inhibition effect (%) PDGFRβ” value is reported as -0.44%.

On to `Cc1ccc(NC(=O)CN2CCOCC2)cc1Oc1nccc(-c2cc3ccccc3o2)n1` [E7], for which the pIC50 was 5.34 in experiment [1]; 4.23 in experiment [2]; 5.05 in experiment [3]; 4.99 in experiment [4]; 5.23 in experiment [5]; 4.83 in experiment [6]. The “Inhibition effect (%) PDGFRα” value in experiment [7] was determined as 18.56%. The “Inhibition effect (%) PDGFRβ” value in experiment [8] is 19.39%.

Turning to `Cc1ccc(NC(=O)CO)cc1Oc1nccc(-c2cc3ccccc3o2)n1` [E8], the pIC50 in experiment [1] is 5.60; in experiment [2] it was 4.87; in experiment [3] it was 5.42; in experiment [4], 5.48; in experiment [5], 5.55; in experiment [6] it was 5.20. Besides, the “Inhibition effect (%) PDGFRα” value in experiment [7] was determined as 26.16%. Besides, the “Inhibition effect (%) PDGFRβ” value in experiment [8] is 14.62%.

Consider `CC(=O)Nc1ccc(C)c(Oc2nccc(-c3cc4ccccc4n3C)n2)c1` [F1], for which the pIC50 was 4.46 in experiment [1]; 4.32 in experiment [2]; 4.51 in experiment [3]; 3.71 in experiment [4]; 4.43 in experiment [5]; 4.53 in experiment [6]. Further, the “Inhibition effect (%) PDGFRα” value in experiment [7] is reported as 6.37%. Moreover, in experiment [8], the “Inhibition effect (%) PDGFRβ” value is 2.32%.

Turning to `CCC(=O)Nc1ccc(C)c(Oc2nccc(-c3cc4ccccc4n3C)n2)c1` [F2], the pIC50 in experiment [1] is 4.55; in experiment [2] it was 4.50; in experiment [3], 4.47; in experiment [4], 4.28; in experiment [5] it was 4.72; in experiment [6], 4.54. In experiment [7], the “Inhibition effect (%) PDGFRα” value is on record as 12.21%. Further, the “Inhibition effect (%) PDGFRβ” value in experiment [8] is recorded as -4.46%.

For the molecule `Cc1ccc(NC(=O)c2ccco2)cc1Oc1nccc(-c2cc3ccccc3n2C)n1` [F3], the pIC50 is 4.74 in experiment [1]; below 3.70 in experiment [2]; 4.38 in experiment [3]; 4.01 in experiment [4]; 4.81 in experiment [5]; 4.58 in experiment [6]. Also, the “Inhibition effect (%) PDGFRα” value in experiment [7] was 24.14%. In addition, the “Inhibition effect (%) PDGFRβ” value in experiment [8] came out at 25.67%.
